The text below walks through data of patent publication US8575158B2, “1-phenyl-substituted heterocyclyl derivatives and their use as prostaglandin D2 receptor modulators” (Actelion Pharmaceuticals Ltd., priority 2010, dated 2013).

The target of the experiment is T1, hCRTH2 receptor (Homo sapiens, UniProt Q9Y5Y4).
T1 construct: expressed in transfected cells; host or cells: HEK293
T1 sequence (Q9Y5Y4 1-395): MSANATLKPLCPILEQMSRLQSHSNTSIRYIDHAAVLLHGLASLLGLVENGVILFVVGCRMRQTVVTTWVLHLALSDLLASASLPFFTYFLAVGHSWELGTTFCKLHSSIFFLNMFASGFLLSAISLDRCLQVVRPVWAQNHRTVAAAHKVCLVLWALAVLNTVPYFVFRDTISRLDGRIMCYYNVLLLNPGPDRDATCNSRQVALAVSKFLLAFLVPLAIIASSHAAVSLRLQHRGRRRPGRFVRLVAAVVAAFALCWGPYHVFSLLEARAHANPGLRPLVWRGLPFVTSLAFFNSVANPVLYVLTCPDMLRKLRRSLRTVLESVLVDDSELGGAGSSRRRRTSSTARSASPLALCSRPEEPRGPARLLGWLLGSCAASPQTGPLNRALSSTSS
The experiment is described as follows: Radioligand displacement assay (3H-PGD2) on hCRTH2 receptor membranes. The experiment is classed as binding. The conditions noted are these: antagonistic activity; 3H-PGD2 displacement on HEK293-hCRTH2 membrane fragments.

A word on the pIC50: it is the IC50 on a negative log10 scale, so that one unit is a factor of ten. A higher pIC50 goes with a low IC50.

pIC50: −log10 of the molar value.

In turn, `O=C(O)COc1ccc(Cl)cc1C1c2ccccc2CCN1C(=O)[C@@H]1C[C@H]1c1cccc(Cl)c1` (single isomer, unassigned; diastereoisomer 1) [Example 151, (±)-(4-Chloro-2-{2-[(trans)-2-(3-chloro-phenyl)-cyclopropanecarbonyl]-1,2,3,4-tetrahydro-isoquinolin-1-yl}-phenoxy)-acetic acid (diastereoisomer 1)] gave a pIC50 of 6.58.
`O=C(O)COc1ccc(Cl)cc1C1c2ccccc2CCN1C(=O)[C@@H]1C[C@H]1c1cccc(Cl)c1` (single isomer, unassigned; diastereoisomer 2) [Example 152, (±)-(4-Chloro-2-{2-[(trans)-2-(3-chloro-phenyl)-cyclopropanecarbonyl]-1,2,3,4-tetrahydro-isoquinolin-1-yl}-phenoxy)-acetic acid (diastereoisomer 2)] gave a pIC50 of 7.48.
Under `C[C@H](Oc1ccc(F)cc1C1c2ccccc2CCN1C(=O)OCc1ccccc1)C(=O)O` (stereo partly drawn) [Example 2, 1-[2-((S)-1-Carboxy-ethoxy)-5-fluoro-phenyl]-3,4-dihydro-1H-isoquinoline-2-carboxylic acid benzyl ester] stands 6.30; under `C[C@@H](Oc1ccc(F)cc1C1c2ccccc2CCN1C(=O)OCc1ccccc1)C(=O)O` (stereo partly drawn) [Example 8, 1-[2-((R)-1-Carboxy-ethoxy)-5-fluoro-phenyl]-3,4-dihydro-1H-isoquinoline-2-carboxylic acid benzyl ester], 7.40; under `C[C@@H](Oc1ccc(C#N)cc1C1c2ccccc2CCN1C(=O)OCc1ccccc1)C(=O)O` (stereo partly drawn) [Example 13, 1-[2-((R)-1-Carboxy-ethoxy)-5-cyano-phenyl]-3,4-dihydro-1H-isoquinoline-2-carboxylic acid benzyl ester], 7.96.
Under `N#Cc1ccc(OCC(=O)O)c([C@@H]2c3ccccc3CCN2C(=O)OCc2ccccc2)c1` [Example 25, (S)-1-(2-Carboxymethoxy-5-cyano-phenyl)-3,4-dihydro-1H-isoquinoline-2-carboxylic acid benzyl ester] stands 8.60; under `O=C(O)COc1ccc(Cl)cc1[C@@H]1c2ccccc2CCN1C(=O)OCc1ccccc1` [Example 26, (S)-1-(2-Carboxymethoxy-5-chloro-phenyl)-3,4-dihydro-1H-isoquinoline-2-carboxylic acid benzyl ester], 8.34.
Consider `C[C@@H](Oc1ccc(F)cc1[C@@H]1c2ccccc2CCN1C(=O)OCc1ccccc1)C(=O)O` [Example 27, (S)-1-[2-((R)-1-Carboxy-ethoxy)-5-fluoro-phenyl]-3,4-dihydro-1H-isoquinoline-2-carboxylic acid benzyl ester], for which the pIC50 is 7.92.
The compound `C[C@H](Oc1ccc(F)cc1[C@@H]1c2ccccc2CCN1C(=O)OCc1ccccc1)C(=O)O` [Example 28, (S)-1-[2-((S)-1-Carboxy-ethoxy)-5-fluoro-phenyl]-3,4-dihydro-1H-isoquinoline-2-carboxylic acid benzyl ester] gave a pIC50 of 6.35.
Take `O=C(O)COc1ccc(Cl)cc1[C@@H]1c2cccc(F)c2CCN1C(=O)OCc1ccccc1` [Example 31, (S)-1-(2-Carboxymethoxy-5-chloro-phenyl)-5-fluoro-3,4-dihydro-1H-isoquinoline-2-carboxylic acid benzyl ester]: the pIC50 was 8.85.
On to `N#Cc1ccc(OCC(=O)O)c([C@@H]2c3cccc(F)c3CCN2C(=O)OCc2ccccc2)c1` [Example 32, (S)-1-(2-Carboxymethoxy-5-cyano-phenyl)-5-fluoro-3,4-dihydro-1H-isoquinoline-2-carboxylic acid benzyl ester], for which the pIC50 was 8.70.
As for `O=C(O)COc1ccc(Cl)cc1C1c2ccccc2CCN1C(=O)C1CCc2ccccc2C1` (stereo not drawn) [Example 77, {4-Chloro-2-[2-(1,2,3,4-tetrahydro-naphthalene-2-carbonyl)-1,2,3,4-tetrahydro-isoquinolin-1-yl]-phenoxy}-acetic acid], the pIC50 is 6.87.
Under `O=C(O)COc1ccc(Cl)cc1C1c2ccccc2CCN1C(=O)CCN1C(=O)CSC1c1ccccc1` (stereo not drawn) [Example 84, (4-Chloro-2-{2-[3-(4-oxo-2-phenyl-thiazolidin-3-yl)-propionyl]-1,2,3,4-tetrahydro-isoquinolin-1-yl}-phenoxy)-acetic acid] stands 7.55; under `O=C(O)COc1ccc(Cl)cc1[C@@H]1c2ccccc2CCN1C(=O)OCc1ccccc1Cl` [Example 174, (S)-1-(2-Carboxymethoxy-5-chloro-phenyl)-3,4-dihydro-1H-isoquinoline-2-carboxylic acid 2-chloro-benzyl ester], 8.24.
Regarding `C[C@@H](Oc1ccc(Cl)cc1C1c2ccccc2CCN1C(=O)OCc1ccccc1)C(=O)O` (stereo partly drawn) [Example 220, 1-[2-((R)-1-Carboxy-ethoxy)-5-chloro-phenyl]-3,4-dihydro-1H-isoquinoline-2-carboxylic acid benzyl ester], the pIC50 was 7.68.
Under `O=C(O)COc1ccc(F)cc1[C@@H]1c2ccccc2CCN1C(=O)OCc1ccccc1` [Example 221, (S)-1-(2-Carboxymethoxy-5-fluoro-phenyl)-3,4-dihydro-1H-isoquinoline-2-carboxylic acid benzyl ester] stands 8.54; under `CC(C)(C)OC(=O)N1CCc2ccccc2[C@H]1c1cc(Cl)ccc1OCC(=O)O` [Example 228], 7.15; under `O=C(O)COc1ccc(Cl)cc1[C@@H]1c2ccc(F)c(F)c2CCN1C(=O)OCc1ccccc1` [Example 229, (S)-1-(2-Carboxymethoxy-5-chloro-phenyl)-5,6-difluoro-3,4-dihydro-1H-isoquinoline-2-carboxylic acid benzyl ester], 8.31.
In the case of `O=C(O)COc1ccc(Cl)cc1C1c2ccccc2CN1C(=O)OCc1ccccc1` (stereo not drawn) [Example 231, 1-(2-Carboxymethoxy-5-chloro-phenyl)-1,3-dihydro-isoindole-2-carboxylic acid benzyl ester], the pIC50 is 8.58.
`O=C(O)COc1ccc(Cl)cc1[C@@H]1c2ccccc2CCN1C(=O)[C@@H]1C[C@H]1c1ccccc1` [Example 232, {4-Chloro-2-[(S)-2-((1R,2R)-2-phenyl-cyclopropanecarbonyl)-1,2,3,4-tetrahydro-isoquinolin-1-yl]-phenoxy}-acetic acid] gave a pIC50 of 8.86.
Turning to `C[C@H](OC(=O)N1CCc2ccccc2[C@H]1c1cc(Cl)ccc1OCC(=O)O)c1ccccc1` [Example 261], the pIC50 is 7.01.
For the compound `O=C(O)COc1ccc(Cl)cc1[C@@H]1c2ccccc2CCN1C(=O)OCc1nccs1` [Example 273, (S)-1-(2-Carboxymethoxy-5-chloro-phenyl)-3,4-dihydro-1H-isoquinoline-2-carboxylic acid thiazol-2-ylmethyl ester], the pIC50 is 8.69.
Under `Cc1ncsc1CCOC(=O)N1CCc2ccccc2[C@H]1c1cc(Cl)ccc1OCC(=O)O` [Example 274, (S)-1-(2-Carboxymethoxy-5-chloro-phenyl)-3,4-dihydro-1H-isoquinoline-2-carboxylic acid 2-(4-methyl-thiazol-5-yl)-ethyl ester] stands 8.62.
Under `Cc1cnc(COC(=O)N2CCc3ccccc3[C@H]2c2cc(Cl)ccc2OCC(=O)O)s1` [Example 275, (S)-1-(2-Carboxymethoxy-5-chloro-phenyl)-3,4-dihydro-1H-isoquinoline-2-carboxylic acid 5-methyl-thiazol-2-ylmethyl ester] stands 8.30.
